In data set [1] the target is Apo(a) and ApoB protein assembly (Homo sapiens (Human), UniProt P08519). Kind of data set: Test for activity of compounds in inhibiting Lp(a) assembly (double antibody ELISA). It counts as biochemical. Conditions: plasma from human transgenic hApo(a) and hApoB mice; 37° C., 2 h; ELISA absorbance at 450 nm. How it is done: The disclosure used a double antibody ELISA method to measure the efficiency of Apo(a) and ApoB protein assembly. The antibodies were ApoB-Capture antibody (Mabtech) and Apo(a)-Detector antibody (Abcam); the test samples were plasma from human transgenic hApo(a) and hApoB mice and were diluted 500-fold before use.
Experimental steps: Equal amounts of Apo(a) and ApoB serum were mixed with a serially diluted test compound (highest concentration at 100 nM, serially diluted 3-fold). The mixture was incubated in a 37° C. incubator for 2 h. The reaction was then terminated by adding 6-aminocaproic acid (EACA, purchased from Sigma) to a final concentration of 150 mM. The post-reaction solution was then added to an ELISA plate pre-coated with ApoB-Capture antibody, and the plate was incubated at room temperature for 2 h. Then the plate was washed 4 times with wash buffer; biotinylated Apo(a)-Detector antibody was added, and the plate was incubated at room temperature for 1 h. The plate was washed, and the chromogenic substrate 3,3′,5,5′-tetramethylbenzidine (TMB, purchased from Abcam) solution was added. After the plate was incubated at room temperature for 15 min, a reaction stop solution was added. Immediately after the solution was mixed well, the absorbance at 450 nm was measured using a microplate reader. Finally, data analysis and IC50 calculation were performed using GraphPad Prism 9 software.
The 0% inhibition rate for Apo(a) and ApoB protein assembly corresponds to the OD value where the compound concentration was 0 (1% DMSO); the 100% inhibition rate for Apo(a) and ApoB protein assembly corresponds to the OD value where only ApoB protein solution (a dilution of plasma from hApoB mice) was added.

Data set [2] can be described thus: High-dose single-dose tolerance experiment on mice. It counts as in vivo, C57/6J mice. The procedure: C57/6J mice were used as test animals and administered a high dose of the compound of the disclosure by oral gavage. Clinical observations were carried out on the mice, and the safety of the compound of the disclosure was evaluated.
Experimental method: 8 male C57/6J mice were numbered 1-8 and weighed. The mice were fasted for 4 h before the experiment and weighed after the fast (0 h). Six mice with body weights closer to the average were selected and divided into 2 groups of 3.
The first group (G1) was administered reference 1, and the second group (G2) was administered the compound of the disclosure, Example 6. In both groups G1 and G2, the compounds were administrated by oral gavage at a dose of 1000 mg/kg, with normal saline as a vehicle. Clinical observations were carried out on the mice in the experimental group at 15 min, 30 min, 1 h, 2 h, 4 h, 6 h, and 24 h post-dose, and both groups were given food at 2 h post-dose.

The nature of data set [3]: In vivo pharmacokinetic experiment on cynomolgus monkeys. Conditions: intragastric. The procedure:
Cynomolgus monkeys were used as test animals. After intragastric administration of the compound of the disclosure to cynomolgus monkeys, plasma concentrations at different time points were determined by LC/MS/MS. The pharmacokinetic behavior of the compound of the disclosure in cynomolgus monkeys was studied and its pharmacokinetic profile was evaluated.
Test Animals: 2 Healthy Cynomolgus Monkeys Aged 24-36 Months Per Group (One Male and One Female)
Compound solution preparation: Certain amounts of compound were weighed out and normal saline was added to form 10 mg/mL (reference 1) and 3 mg/mL (compound 6) colorless clear solutions.
Administration: Cynomolgus monkeys were fasted overnight and then intragastrically dosed. Reference 1 was administered at a dose of 50 mg/kg, and compound 6 was administered at a dose of 15 mg/kg.
Procedure: Cynomolgus monkeys were intragastrically administered the compound of the disclosure. Blood samples of about 0.5 mL were collected from the peripheral vein at 0.25, 0.5, 1, 2, 4, 6, 8, and 24 h post-dose and placed into test tubes containing EDTA-K2. The blood samples were centrifuged at about 4° C. at 2000 rpm for 10 min to separate plasma, and the plasma was stored at −75° C.
(§1) Determination of the content of the test compound in cynomolgus monkey plasma at these different blood collection time points: Samples of 33 μL (30 μL of plasma and 3 μL of blank) of the cynomolgus monkey plasma collected at these time points post-dose were taken and added to 18 μL of a 6% perchloric acid solution. After 30 s of vortexing, the mixture was centrifuged at a temperature of 4° C. at 3900 rpm for 15 min, and 200 μL of alkalinized (the pH was adjusted to 10-11 with ammonia water) acetonitrile solution containing dexamethasone as an internal standard was then added to precipitate protein. After 30 s of vortexing, the mixture was centrifuged at 4° C. at 3900 rpm for 15 min. The supernatants of the plasma samples were taken and 3-fold diluted with water, and 8 μL of dilution was taken for LC/MS/MS analysis.
(§2) After plasma concentrations were determined by LC/MS/MS analysis, pharmacokinetic parameters were calculated using WinNonlin 6.1 software and a non-compartmental model method.

Data set [4] in a line: In vivo pharmacokinetic experiment on beagles. The settings on record: intragastric, 10 mg/kg, conclusion in words. How it is done: Beagles were used as test animals. After intragastric administration of the compound of the disclosure to beagles, plasma concentrations at different time points were determined by LC/MS/MS. The pharmacokinetic behavior of the compound of the disclosure in beagles was studied and its pharmacokinetic profile was evaluated.
Test Animals: 2 Healthy Male Beagles Aged 8-36 Months Per Group
Compound solution preparation: A certain amount of compound was weighed out and normal saline was added to form a 2 mg/mL colorless clear solution.
Administration: Beagles were fasted overnight and then intragastrically dosed. Reference 1 and compound 6 were both administered at a dose of 10 mg/kg.
Procedure: Beagles were intragastrically administered the compound of the disclosure. Blood samples of about 0.6 mL were collected from the peripheral vein at 0.25, 0.5, 1, 2, 4, 6, 8, and 24 h post-dose and placed into test tubes containing EDTA-K2. The blood samples were centrifuged at about 4° C. at 2000 rpm for 10 min to separate plasma, and the plasma was stored at −75° C.
as §1, with “beagle” for “cynomolgus monkey”
as §2

Where a name gives a salt, the structure may show the parent alone.

Apo(a) and ApoB protein assembly, sequence (P08519 20-2040): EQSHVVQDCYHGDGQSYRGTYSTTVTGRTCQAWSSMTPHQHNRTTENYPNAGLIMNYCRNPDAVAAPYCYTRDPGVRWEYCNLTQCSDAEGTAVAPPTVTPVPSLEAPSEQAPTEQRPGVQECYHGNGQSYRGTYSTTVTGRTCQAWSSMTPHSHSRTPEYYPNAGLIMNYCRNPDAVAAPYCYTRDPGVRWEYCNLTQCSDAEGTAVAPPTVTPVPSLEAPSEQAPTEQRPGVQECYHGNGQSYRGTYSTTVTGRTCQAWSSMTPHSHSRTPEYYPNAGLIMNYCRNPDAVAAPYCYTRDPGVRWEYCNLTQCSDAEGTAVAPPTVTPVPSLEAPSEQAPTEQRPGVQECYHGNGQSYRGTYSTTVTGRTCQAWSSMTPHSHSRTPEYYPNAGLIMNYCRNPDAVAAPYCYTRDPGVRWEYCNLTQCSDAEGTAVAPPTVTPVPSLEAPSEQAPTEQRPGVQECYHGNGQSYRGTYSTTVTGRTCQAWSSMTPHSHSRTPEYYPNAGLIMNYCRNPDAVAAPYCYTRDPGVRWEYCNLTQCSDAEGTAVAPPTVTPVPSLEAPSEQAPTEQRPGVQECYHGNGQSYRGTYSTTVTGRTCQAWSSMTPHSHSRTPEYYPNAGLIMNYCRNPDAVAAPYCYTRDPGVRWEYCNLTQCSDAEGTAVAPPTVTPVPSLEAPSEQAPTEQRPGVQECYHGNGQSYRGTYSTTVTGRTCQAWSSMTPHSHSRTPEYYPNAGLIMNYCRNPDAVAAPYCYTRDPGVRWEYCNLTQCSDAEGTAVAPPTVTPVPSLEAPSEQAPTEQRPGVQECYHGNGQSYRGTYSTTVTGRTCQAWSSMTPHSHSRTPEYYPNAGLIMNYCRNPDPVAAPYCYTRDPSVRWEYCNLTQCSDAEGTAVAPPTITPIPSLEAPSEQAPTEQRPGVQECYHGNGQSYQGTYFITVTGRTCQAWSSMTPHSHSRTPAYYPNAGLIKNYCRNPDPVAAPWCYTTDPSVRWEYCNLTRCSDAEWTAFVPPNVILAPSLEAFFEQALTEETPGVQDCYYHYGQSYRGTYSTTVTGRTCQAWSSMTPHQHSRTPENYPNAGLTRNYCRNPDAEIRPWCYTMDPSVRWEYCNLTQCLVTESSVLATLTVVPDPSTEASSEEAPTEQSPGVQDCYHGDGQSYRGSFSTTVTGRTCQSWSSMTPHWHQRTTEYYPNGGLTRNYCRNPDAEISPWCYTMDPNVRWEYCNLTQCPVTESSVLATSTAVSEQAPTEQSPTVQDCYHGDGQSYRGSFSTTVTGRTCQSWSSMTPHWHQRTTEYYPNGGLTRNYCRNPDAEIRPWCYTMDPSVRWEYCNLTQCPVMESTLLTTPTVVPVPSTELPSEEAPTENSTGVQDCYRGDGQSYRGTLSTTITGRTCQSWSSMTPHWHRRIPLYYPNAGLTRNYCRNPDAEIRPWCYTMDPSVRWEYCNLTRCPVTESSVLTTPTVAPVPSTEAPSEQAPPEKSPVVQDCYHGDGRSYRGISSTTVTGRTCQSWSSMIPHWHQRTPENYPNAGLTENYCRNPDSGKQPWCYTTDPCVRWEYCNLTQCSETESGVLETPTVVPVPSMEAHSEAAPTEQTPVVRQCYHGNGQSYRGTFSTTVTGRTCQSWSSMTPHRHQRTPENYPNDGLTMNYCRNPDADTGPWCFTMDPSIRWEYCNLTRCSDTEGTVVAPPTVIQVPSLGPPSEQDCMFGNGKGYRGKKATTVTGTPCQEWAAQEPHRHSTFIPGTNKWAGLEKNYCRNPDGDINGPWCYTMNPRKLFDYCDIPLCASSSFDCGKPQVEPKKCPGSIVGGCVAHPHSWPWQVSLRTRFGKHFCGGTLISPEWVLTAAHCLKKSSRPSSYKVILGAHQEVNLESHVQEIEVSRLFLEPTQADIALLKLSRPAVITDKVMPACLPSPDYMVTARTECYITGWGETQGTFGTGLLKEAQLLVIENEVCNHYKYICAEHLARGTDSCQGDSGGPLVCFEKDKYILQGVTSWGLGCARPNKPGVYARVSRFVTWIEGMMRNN

One may read the IC50 as the midpoint of a concentration-inhibition curve. In general, AUC refers to the area under the concentration-time curve, a measure of exposure. In data set [1], `O=C(O)[C@@H](Cc1cccc(CN(CCOc2cccc(C[C@H](C(=O)O)[C@H]3CCNC3)c2)Cc2cccc(C[C@H](C(=O)O)[C@H]3CCNC3)c2)c1)[C@H]1CCNC1` [Compound 6, (2S)-3-(3-{[(2-{3-[(2S)-2-Carboxy-2-[(3R)-pyrrolidin-3-yl]ethyl]phenoxy}ethyl)({3-[(2S)-2-carboxy-2-[(3R)-pyrrolidin-3-yl]ethyl]phenyl}methyl)amino]methyl}phenyl)-2-[(3R)-pyrrolidin-3-yl]propanoic acid tetrahydrochloride] returned a half-inhibitory concentration (IC50) of 0.41 nM. Moreover, in data set [2] (7 d after high-dose (1000 mg/kg) administration, conclusion in words), the “body weight trend of the mice” value is listed as “remained unchanged or even increased”. The “Mouse body weight, Day 0” value in data set [2] (male C57/6J mice, single oral gavage 1000 mg/kg, mean, Day 0) worked out at 25.83 g. The “Mouse body weight, Day 3” value in data set [2] (male C57/6J mice, single oral gavage 1000 mg/kg, mean, Day 3) worked out at 26.93 g. The “Mouse body weight, Day 5” value in data set [2] (male C57/6J mice, single oral gavage 1000 mg/kg, mean, Day 5) came to 26.70 g. In addition, the “Mouse body weight, Day 7” value in data set [2] (male C57/6J mice, single oral gavage 1000 mg/kg, mean, Day 7) is reported as 26.67 g. Moreover, the AUC in data set [3] (both sexes, cynomolgus monkey, plasma, po, 15 mg/kg, read-out: Area under curve AUC) was 33.1 µg·h/mL. The half-life in data set [3] (both sexes, cynomolgus monkey, plasma, po, 15 mg/kg, read-out: Half-life T1/2 (converted)) is 16.6 h. For the same molecule, the Cmax in data set [3] (both sexes, cynomolgus monkey, plasma, po, 15 mg/kg, read-out: Maximum plasma concentration Cmax) came out at 2.37 µg/mL. The molecule also had a Unit-dose area under curve AUC/D in data set [3] (15 mg/kg) of 2200 ng·h/mL per mg/kg. Further, the “plasma exposure relative to reference 1” value in data set [3] (compound 6 15 mg/kg vs reference 1 50 mg/kg) is recorded as around 5 times. Also, the “oral absorption compared with reference 1” value in data set [3] (conclusion in words) and in data set [4] was “better” in each case.
